# Test results as given in the kinase profiling compilation of Christmann-Franck et al. (2016).
# Where “and” joins values, the source holds several entries; their conditions need not be identical. Equal values may be shown once.
# Experiments:
# CHEK1 (human) = CHEK1 (human) (UniProt O14757)
# MAPK3 (human) = MAPK3 (human) (UniProt P27361)
# RPS6KA3 KD1 KD2 (human) = RPS6KA3 KD1 KD2 (human) (UniProt P51812)
# INSRR (human) = INSRR (human) (UniProt P14616)
# RPS6KA1 KD1 KD2 (human) = RPS6KA1 KD1 KD2 (human) (UniProt Q15418)
# Chain of RPS6KA1 KD1 KD2 (human) (Q15418 whole entry, looked up): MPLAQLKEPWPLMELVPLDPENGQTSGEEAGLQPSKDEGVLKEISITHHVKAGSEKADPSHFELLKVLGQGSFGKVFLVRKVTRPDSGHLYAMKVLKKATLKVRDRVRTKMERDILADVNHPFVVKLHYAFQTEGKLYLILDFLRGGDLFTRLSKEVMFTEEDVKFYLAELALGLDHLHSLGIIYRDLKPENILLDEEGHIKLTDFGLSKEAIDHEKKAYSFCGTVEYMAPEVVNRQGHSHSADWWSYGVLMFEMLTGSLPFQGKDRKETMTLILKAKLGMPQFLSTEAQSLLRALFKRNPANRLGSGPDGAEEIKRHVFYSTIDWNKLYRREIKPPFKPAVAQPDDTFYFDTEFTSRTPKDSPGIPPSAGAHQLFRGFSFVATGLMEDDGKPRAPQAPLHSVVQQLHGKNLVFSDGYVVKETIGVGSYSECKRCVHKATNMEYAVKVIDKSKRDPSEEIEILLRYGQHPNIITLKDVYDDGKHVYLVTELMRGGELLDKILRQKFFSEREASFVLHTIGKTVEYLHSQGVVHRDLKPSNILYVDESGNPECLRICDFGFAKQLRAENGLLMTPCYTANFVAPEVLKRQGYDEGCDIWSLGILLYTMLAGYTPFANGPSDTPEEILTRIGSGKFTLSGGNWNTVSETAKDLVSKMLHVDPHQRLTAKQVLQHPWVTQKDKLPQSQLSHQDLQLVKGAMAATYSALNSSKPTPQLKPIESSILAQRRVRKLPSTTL
# HIPK2 (human) = HIPK2 (human) (UniProt Q9H2X6)
# [1] = tested on: RPS6KB1 (human), P23443 [T412E]
# MAP2K1 (human) = MAP2K1 (human) (UniProt Q02750)
# EPHB3 (human) = EPHB3 (human) (UniProt P54753)
# MKNK2 (human) = MKNK2 (human) (UniProt Q9HBH9)
# PDPK1 (human) = PDPK1 (human) (UniProt O15530)
# Chain of PDPK1 (human) (O15530 whole entry, looked up): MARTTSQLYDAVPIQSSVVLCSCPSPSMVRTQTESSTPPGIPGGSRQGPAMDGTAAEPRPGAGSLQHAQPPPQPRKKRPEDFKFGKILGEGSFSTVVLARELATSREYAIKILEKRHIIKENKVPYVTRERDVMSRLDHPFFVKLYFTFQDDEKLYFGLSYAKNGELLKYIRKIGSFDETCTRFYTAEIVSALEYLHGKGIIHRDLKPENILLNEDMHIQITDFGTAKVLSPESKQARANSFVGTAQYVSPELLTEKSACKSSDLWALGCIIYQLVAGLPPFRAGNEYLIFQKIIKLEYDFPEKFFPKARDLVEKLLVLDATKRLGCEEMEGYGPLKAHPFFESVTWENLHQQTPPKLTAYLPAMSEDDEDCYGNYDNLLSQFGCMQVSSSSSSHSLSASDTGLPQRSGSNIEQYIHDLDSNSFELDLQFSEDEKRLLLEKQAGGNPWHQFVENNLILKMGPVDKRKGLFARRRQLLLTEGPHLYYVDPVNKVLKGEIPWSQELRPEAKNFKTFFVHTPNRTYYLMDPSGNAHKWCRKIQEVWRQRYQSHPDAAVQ
# CaMK1 (human) = CaMK1 (human) (UniProt Q14012)
# MAPKAPK5 (human) = MAPKAPK5 (human) (UniProt Q8IW41)
# Chain of MAPKAPK5 (human) (Q8IW41 whole entry, looked up): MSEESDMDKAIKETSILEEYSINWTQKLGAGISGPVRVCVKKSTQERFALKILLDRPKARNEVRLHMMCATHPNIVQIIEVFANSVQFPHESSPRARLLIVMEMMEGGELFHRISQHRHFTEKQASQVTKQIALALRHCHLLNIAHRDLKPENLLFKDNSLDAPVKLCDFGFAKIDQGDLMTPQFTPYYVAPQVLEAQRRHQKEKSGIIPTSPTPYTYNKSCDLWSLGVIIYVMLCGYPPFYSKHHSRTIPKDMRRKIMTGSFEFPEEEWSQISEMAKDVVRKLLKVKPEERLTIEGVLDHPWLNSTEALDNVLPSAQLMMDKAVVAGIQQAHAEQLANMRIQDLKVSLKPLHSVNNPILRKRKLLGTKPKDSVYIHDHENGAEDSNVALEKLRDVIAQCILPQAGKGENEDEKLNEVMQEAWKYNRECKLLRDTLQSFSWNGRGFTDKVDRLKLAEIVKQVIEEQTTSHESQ
# YES1 (human) = YES1 (human) (UniProt P07947)
# CHEK2 (human) = CHEK2 (human) (UniProt O96017)
# MAPK8 (human) = MAPK8 (human) (UniProt P45983)
# PRKACA (human) = PRKACA (human) (UniProt P17612)
# CSK (human) = CSK (human) (UniProt P41240)
# MAPK11 (human) = MAPK11 (human) (UniProt Q15759)
# GSK3B (human) = GSK3B (human) (UniProt P49841)
# NEK6 (human) = NEK6 (human) (UniProt Q9HC98)
# Chain of NEK6 (human) (Q9HC98 whole entry, looked up): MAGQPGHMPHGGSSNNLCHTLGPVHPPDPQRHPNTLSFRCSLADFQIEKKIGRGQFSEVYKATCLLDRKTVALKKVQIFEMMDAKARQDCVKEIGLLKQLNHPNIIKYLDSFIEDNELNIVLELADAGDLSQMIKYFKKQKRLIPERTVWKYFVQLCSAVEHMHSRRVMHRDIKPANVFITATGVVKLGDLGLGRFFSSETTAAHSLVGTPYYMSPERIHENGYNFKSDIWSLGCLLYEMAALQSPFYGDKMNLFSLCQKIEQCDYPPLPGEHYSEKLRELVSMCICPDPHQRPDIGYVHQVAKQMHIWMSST
# EEF2K (human) = EEF2K (human) (UniProt O00418)
# PRKAA1 or PRKAA2 (rat) = settings: accession and sequence are those of the human protein
# PAK4 (human) = PAK4 (human) (UniProt O96013)
# Chain of PAK4 (human) (O96013 whole entry, looked up): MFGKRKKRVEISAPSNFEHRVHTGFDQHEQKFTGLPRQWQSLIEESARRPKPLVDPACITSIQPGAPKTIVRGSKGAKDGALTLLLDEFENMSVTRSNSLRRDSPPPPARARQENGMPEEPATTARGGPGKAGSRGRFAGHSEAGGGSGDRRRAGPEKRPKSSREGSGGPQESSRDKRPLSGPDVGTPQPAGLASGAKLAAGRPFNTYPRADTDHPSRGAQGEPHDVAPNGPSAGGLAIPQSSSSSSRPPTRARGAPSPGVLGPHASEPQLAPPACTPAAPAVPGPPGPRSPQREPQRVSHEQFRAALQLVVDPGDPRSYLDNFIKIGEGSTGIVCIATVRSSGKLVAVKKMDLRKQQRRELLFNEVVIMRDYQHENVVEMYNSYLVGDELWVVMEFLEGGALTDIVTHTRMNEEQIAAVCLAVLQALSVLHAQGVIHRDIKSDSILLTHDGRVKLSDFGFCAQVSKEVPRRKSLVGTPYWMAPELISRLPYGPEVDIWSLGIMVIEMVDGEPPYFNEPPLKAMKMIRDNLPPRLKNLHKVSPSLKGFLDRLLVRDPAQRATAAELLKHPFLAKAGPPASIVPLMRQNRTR
# DYRK1A (human) = DYRK1A (human) (UniProt Q13627)
# SRPK1 (human) = SRPK1 (human) (UniProt Q96SB4)
# LCK (mouse) = settings: accession and sequence are those of the human protein
# PIM3 (human) = PIM3 (human) (UniProt Q86V86)
# PHKG1 (human) = PHKG1 (human) (UniProt Q16816)
# AURKB (human) = AURKB (human) (UniProt Q96GD4)
# PIM2 (human) = PIM2 (human) (UniProt Q9P1W9)
# PRKCA (human) = PRKCA (human) (UniProt P17252)
# MAPK14 (human) = MAPK14 (human) (UniProt Q16539)
# Chain of MAPK14 (human) (Q16539 whole entry, looked up): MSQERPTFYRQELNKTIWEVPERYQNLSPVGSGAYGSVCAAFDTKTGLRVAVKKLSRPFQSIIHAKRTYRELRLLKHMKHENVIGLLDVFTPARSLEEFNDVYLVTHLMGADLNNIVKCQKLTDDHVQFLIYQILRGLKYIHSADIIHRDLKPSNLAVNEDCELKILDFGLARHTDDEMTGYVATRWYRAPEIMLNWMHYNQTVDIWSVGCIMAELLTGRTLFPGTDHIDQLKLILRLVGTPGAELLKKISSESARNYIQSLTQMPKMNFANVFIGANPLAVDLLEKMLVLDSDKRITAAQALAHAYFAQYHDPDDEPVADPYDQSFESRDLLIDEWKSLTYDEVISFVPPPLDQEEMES
# SRC (human) = SRC (human) (UniProt P12931); settings: compound 10.0 µM
# Chain of INSRR (human) (P14616 whole entry, looked up): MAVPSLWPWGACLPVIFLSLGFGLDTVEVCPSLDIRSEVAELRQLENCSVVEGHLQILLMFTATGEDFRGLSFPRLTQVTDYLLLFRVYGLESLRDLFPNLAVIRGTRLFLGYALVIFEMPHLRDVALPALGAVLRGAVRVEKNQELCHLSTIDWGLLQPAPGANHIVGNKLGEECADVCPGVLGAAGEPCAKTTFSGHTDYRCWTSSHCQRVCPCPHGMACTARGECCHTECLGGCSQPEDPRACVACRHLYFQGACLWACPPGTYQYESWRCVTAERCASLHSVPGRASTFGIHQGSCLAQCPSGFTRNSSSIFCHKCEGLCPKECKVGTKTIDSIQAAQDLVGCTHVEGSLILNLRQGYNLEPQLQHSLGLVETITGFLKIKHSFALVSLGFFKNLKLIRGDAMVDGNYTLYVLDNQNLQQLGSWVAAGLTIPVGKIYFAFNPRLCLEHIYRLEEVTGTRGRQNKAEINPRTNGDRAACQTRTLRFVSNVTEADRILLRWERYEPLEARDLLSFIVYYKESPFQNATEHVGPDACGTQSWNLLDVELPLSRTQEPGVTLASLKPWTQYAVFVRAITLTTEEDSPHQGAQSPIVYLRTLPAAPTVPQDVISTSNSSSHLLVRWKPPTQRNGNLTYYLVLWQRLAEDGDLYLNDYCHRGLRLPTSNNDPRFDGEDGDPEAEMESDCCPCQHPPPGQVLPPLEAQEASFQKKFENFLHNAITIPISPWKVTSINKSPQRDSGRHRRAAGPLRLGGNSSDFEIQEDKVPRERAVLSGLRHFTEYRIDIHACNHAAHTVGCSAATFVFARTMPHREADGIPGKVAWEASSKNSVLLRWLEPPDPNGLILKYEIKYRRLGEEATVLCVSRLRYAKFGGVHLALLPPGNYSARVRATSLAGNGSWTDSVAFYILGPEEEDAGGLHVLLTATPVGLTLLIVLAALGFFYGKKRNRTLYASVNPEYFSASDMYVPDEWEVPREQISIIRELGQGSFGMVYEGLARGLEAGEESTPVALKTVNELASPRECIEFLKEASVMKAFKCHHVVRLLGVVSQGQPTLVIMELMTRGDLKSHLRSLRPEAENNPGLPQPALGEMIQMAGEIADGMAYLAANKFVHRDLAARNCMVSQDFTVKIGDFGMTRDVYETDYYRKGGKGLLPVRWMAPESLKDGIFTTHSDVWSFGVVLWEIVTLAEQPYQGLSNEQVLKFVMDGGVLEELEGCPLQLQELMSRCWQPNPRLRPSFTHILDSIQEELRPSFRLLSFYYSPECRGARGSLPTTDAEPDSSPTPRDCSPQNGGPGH
smiles,measurement,setting,value
CC(C)n1nc(-c2cc3cc(O)ccc3[nH]2)c2c(N)ncnc21,per cent of control,CHEK1 (human); compound 1.0 µM,91%
same,per cent of control,CHEK1 (human); compound 10.0 µM,34%
same,per cent of control,MAPK3 (human); compound 1.0 µM,88%
same,per cent of control,MAPK3 (human); compound 10.0 µM,81%
same,per cent of control,RPS6KA3 KD1 KD2 (human); compound 1.0 µM,63%
same,per cent of control,RPS6KA3 KD1 KD2 (human); compound 10.0 µM,16%
same,per cent of control,INSRR (human); compound 1.0 µM,47%
same,per cent of control,INSRR (human); compound 10.0 µM,29%
same,per cent of control,RPS6KA1 KD1 KD2 (human); compound 1.0 µM,53%
same,per cent of control,RPS6KA1 KD1 KD2 (human); compound 10.0 µM,19%
same,per cent of control,HIPK2 (human); compound 1.0 µM,26%
same,per cent of control,HIPK2 (human); compound 10.0 µM,7%
same,per cent of control,[1]; compound 1.0 µM,80%
same,per cent of control,[1]; compound 10.0 µM,50%
same,per cent of control,MAP2K1 (human); compound 1.0 µM,25%
same,per cent of control,MAP2K1 (human); compound 10.0 µM,10%
same,per cent of control,EPHB3 (human); compound 1.0 µM,18%
same,per cent of control,EPHB3 (human); compound 10.0 µM,5%
same,per cent of control,MKNK2 (human); compound 1.0 µM,86%
same,per cent of control,MKNK2 (human); compound 10.0 µM,42%
same,per cent of control,PDPK1 (human); compound 1.0 µM,83% and 93%
same,per cent of control,PDPK1 (human); compound 10.0 µM,60% and 71%
same,per cent of control,CaMK1 (human); compound 1.0 µM,80%
same,per cent of control,CaMK1 (human); compound 10.0 µM,33%
same,per cent of control,MAPKAPK5 (human); compound 1.0 µM,97%
same,per cent of control,MAPKAPK5 (human); compound 10.0 µM,92%
same,per cent of control,YES1 (human); compound 1.0 µM,-2%
same,per cent of control,YES1 (human); compound 10.0 µM,-8%
same,per cent of control,CHEK2 (human); compound 1.0 µM,31%
same,per cent of control,CHEK2 (human); compound 10.0 µM,2%
same,per cent of control,MAPK8 (human); compound 1.0 µM,94%
same,per cent of control,MAPK8 (human); compound 10.0 µM,103%
same,per cent of control,PRKACA (human); compound 1.0 µM,94%
same,per cent of control,PRKACA (human); compound 10.0 µM,45%
same,per cent of control,CSK (human); compound 1.0 µM,52%
same,per cent of control,CSK (human); compound 10.0 µM,34%
same,per cent of control,MAPK11 (human); compound 1.0 µM,91%
same,per cent of control,MAPK11 (human); compound 10.0 µM,77%
same,per cent of control,GSK3B (human); compound 1.0 µM,103%
same,per cent of control,GSK3B (human); compound 10.0 µM,60%
same,per cent of control,NEK6 (human); compound 1.0 µM,99%
same,per cent of control,NEK6 (human); compound 10.0 µM,96%
same,per cent of control,EEF2K (human); compound 1.0 µM,115%
same,per cent of control,EEF2K (human); compound 10.0 µM,106%
same,per cent of control,PRKAA1 or PRKAA2 (rat); compound 1.0 µM,70%
same,per cent of control,PRKAA1 or PRKAA2 (rat); compound 10.0 µM,28%
same,per cent of control,PAK4 (human); compound 1.0 µM,88%
same,per cent of control,PAK4 (human); compound 10.0 µM,28%
same,per cent of control,DYRK1A (human); compound 1.0 µM,84%
same,per cent of control,DYRK1A (human); compound 10.0 µM,55%
same,per cent of control,SRPK1 (human); compound 1.0 µM,86%
same,per cent of control,SRPK1 (human); compound 10.0 µM,63%
same,per cent of control,LCK (mouse); compound 1.0 µM,13%
same,per cent of control,LCK (mouse); compound 10.0 µM,4%
same,per cent of control,PIM3 (human); compound 1.0 µM,59%
same,per cent of control,PIM3 (human); compound 10.0 µM,13%
same,per cent of control,PHKG1 (human); compound 1.0 µM,72%
same,per cent of control,PHKG1 (human); compound 10.0 µM,25%
same,per cent of control,AURKB (human); compound 1.0 µM,78%
same,per cent of control,AURKB (human); compound 10.0 µM,27%
same,per cent of control,PIM2 (human); compound 1.0 µM,110%
same,per cent of control,PIM2 (human); compound 10.0 µM,36%
same,per cent of control,PRKCA (human); compound 1.0 µM,13%
same,per cent of control,PRKCA (human); compound 10.0 µM,9%
same,per cent of control,MAPK14 (human); compound 1.0 µM,95%
same,per cent of control,MAPK14 (human); compound 10.0 µM,90%
COc1ccc(-c2ccc3c(N4CCOCC4)nc(N4C[C@@H](C)O[C@@H](C)C4)nc3n2)cc1CO,per cent of control,CHEK1 (human); compound 1.0 µM,87%
same,per cent of control,CHEK1 (human); compound 10.0 µM,86%
same,per cent of control,MAPK3 (human); compound 1.0 µM,102%
same,per cent of control,MAPK3 (human); compound 10.0 µM,87%
same,per cent of control,RPS6KA3 KD1 KD2 (human); compound 1.0 µM,103%
same,per cent of control,RPS6KA3 KD1 KD2 (human); compound 10.0 µM,104%
same,per cent of control,INSRR (human); compound 1.0 µM,105%
same,per cent of control,INSRR (human); compound 10.0 µM,71%
same,per cent of control,RPS6KA1 KD1 KD2 (human); compound 1.0 µM,100%
same,per cent of control,RPS6KA1 KD1 KD2 (human); compound 10.0 µM,86%
same,per cent of control,HIPK2 (human); compound 1.0 µM,89%
same,per cent of control,HIPK2 (human); compound 10.0 µM,89%
same,per cent of control,[1]; compound 1.0 µM,104%
same,per cent of control,[1]; compound 10.0 µM,98%
same,per cent of control,MAP2K1 (human); compound 1.0 µM,96%
same,per cent of control,MAP2K1 (human); compound 10.0 µM,43%
same,per cent of control,EPHB3 (human); compound 1.0 µM,100%
same,per cent of control,EPHB3 (human); compound 10.0 µM,78%
same,per cent of control,MKNK2 (human); compound 1.0 µM,87%
same,per cent of control,MKNK2 (human); compound 10.0 µM,92%
same,per cent of control,PDPK1 (human); compound 1.0 µM,80% and 89%
same,per cent of control,PDPK1 (human); compound 10.0 µM,91% and 101%
same,per cent of control,SRC (human),86%
same,per cent of control,CaMK1 (human); compound 1.0 µM,96%
same,per cent of control,CaMK1 (human); compound 10.0 µM,101%
same,per cent of control,MAPKAPK5 (human); compound 1.0 µM,67%
same,per cent of control,MAPKAPK5 (human); compound 10.0 µM,87%
same,per cent of control,YES1 (human); compound 1.0 µM,94%
same,per cent of control,YES1 (human); compound 10.0 µM,90%
same,per cent of control,MAPK8 (human); compound 1.0 µM,80%
same,per cent of control,MAPK8 (human); compound 10.0 µM,93%
same,per cent of control,PRKACA (human); compound 1.0 µM,115%
same,per cent of control,PRKACA (human); compound 10.0 µM,85%
same,per cent of control,CSK (human); compound 1.0 µM,90%
same,per cent of control,CSK (human); compound 10.0 µM,99%
same,per cent of control,MAPK11 (human); compound 1.0 µM,106%
same,per cent of control,MAPK11 (human); compound 10.0 µM,83%
same,per cent of control,GSK3B (human); compound 1.0 µM,95%
same,per cent of control,GSK3B (human); compound 10.0 µM,91%
same,per cent of control,NEK6 (human); compound 1.0 µM,74%
same,per cent of control,NEK6 (human); compound 10.0 µM,83%
same,per cent of control,EEF2K (human); compound 1.0 µM,88%
same,per cent of control,EEF2K (human); compound 10.0 µM,108%
same,per cent of control,PRKAA1 or PRKAA2 (rat); compound 1.0 µM,97%
same,per cent of control,PRKAA1 or PRKAA2 (rat); compound 10.0 µM,106%
same,per cent of control,PAK4 (human); compound 1.0 µM,11%
same,per cent of control,PAK4 (human); compound 10.0 µM,75%
same,per cent of control,DYRK1A (human); compound 1.0 µM,94%
same,per cent of control,DYRK1A (human); compound 10.0 µM,80%
same,per cent of control,SRPK1 (human); compound 1.0 µM,101%
same,per cent of control,SRPK1 (human); compound 10.0 µM,94%
same,per cent of control,LCK (mouse); compound 1.0 µM,69%
same,per cent of control,LCK (mouse); compound 10.0 µM,104%
same,per cent of control,PIM3 (human); compound 1.0 µM,114%
same,per cent of control,PIM3 (human); compound 10.0 µM,75%
same,per cent of control,PHKG1 (human); compound 1.0 µM,89%
same,per cent of control,PHKG1 (human); compound 10.0 µM,116%
same,per cent of control,AURKB (human); compound 10.0 µM,86%
same,per cent of control,PIM2 (human); compound 1.0 µM,86%
same,per cent of control,PIM2 (human); compound 10.0 µM,78%
same,per cent of control,PRKCA (human); compound 1.0 µM,106%
same,per cent of control,PRKCA (human); compound 10.0 µM,86%
same,per cent of control,MAPK14 (human); compound 1.0 µM,101%
same,per cent of control,MAPK14 (human); compound 10.0 µM,96%
